In US20250214980A1, “MULTICYCLIC COMPOUNDS” (SLAP Pharmaceuticals LLC, priority 2022, published 2025):

Target: T1, PARP1 (Homo sapiens (Human), UniProt P09874)
Assay: biochemical assay (FP Binding Assay PARP1), Table 2
Protocol: FP Binding Assay (PARP1, PARP2)
The PARP1 and PARP 2 protein and the PARPi-FL were purchased from BPS Bioscience. The assay buffer was 50 mM Tris pH 8.0, 0.001% Triton X-100, 10 mM MgCl2, 150 mM NaCl. The compounds were diluted into top point concentration in 384PP-plate and transferred serially into an Optiplate-384F plate. Compound (20 nL) or DMSO was added to assay plate and then 10 μL of 40 nM PARP1 or PARP2 (diluted using assay buffer) was added. The assay plate was centrifuged at 1000 rpm for 1 min and then incubated for 30 min at rt. 6 nM PARPi-FL (diluted using assay buffer) (10 uL) was added to the plate (final concentration of PARP1 and PARP2 was 20 nM, and PARPi-FL was 3 nM). After centrifuging at 1000 rpm for 1 min, the assay plate was incubated at rt 4 h. The plates were read using Envision with Excitation filter. The data analysis was done by calculating the inhibition rate using mP value using the following equation. Inhibition (%)=(1−mpC−mpL)/mpH−mpL×100%.
As shown by the results in Table 2, compounds of Formula (I), including pharmaceutically acceptable salts thereof, are effective PARP1 inhibitors.
Target sequence in this assay (P09874 whole entry, species assumed): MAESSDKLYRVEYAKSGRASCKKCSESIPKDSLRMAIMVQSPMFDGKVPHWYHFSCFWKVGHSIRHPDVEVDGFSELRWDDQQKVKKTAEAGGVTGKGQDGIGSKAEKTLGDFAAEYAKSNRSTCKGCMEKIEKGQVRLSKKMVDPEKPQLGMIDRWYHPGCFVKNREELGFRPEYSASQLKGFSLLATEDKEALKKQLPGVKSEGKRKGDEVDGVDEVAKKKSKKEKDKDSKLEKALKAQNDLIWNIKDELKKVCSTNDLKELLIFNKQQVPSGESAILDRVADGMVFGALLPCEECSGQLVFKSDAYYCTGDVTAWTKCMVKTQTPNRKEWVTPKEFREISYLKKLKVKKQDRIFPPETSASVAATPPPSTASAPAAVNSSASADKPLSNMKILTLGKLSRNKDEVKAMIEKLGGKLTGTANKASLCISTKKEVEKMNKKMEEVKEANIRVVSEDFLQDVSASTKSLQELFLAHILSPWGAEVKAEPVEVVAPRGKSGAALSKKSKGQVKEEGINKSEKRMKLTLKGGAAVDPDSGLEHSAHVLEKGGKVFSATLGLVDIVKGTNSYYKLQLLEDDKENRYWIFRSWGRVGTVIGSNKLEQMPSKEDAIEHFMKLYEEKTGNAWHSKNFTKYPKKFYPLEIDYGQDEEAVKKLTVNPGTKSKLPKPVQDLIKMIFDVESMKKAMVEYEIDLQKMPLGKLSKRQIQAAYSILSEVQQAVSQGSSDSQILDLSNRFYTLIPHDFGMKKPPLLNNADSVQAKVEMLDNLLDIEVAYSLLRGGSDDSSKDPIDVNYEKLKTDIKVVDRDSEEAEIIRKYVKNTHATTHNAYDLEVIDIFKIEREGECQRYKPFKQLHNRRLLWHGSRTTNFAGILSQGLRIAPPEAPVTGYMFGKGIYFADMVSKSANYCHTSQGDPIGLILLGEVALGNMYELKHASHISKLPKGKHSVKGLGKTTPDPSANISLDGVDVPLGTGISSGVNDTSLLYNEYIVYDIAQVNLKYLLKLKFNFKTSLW

SMILES | IC50 [nM]
CNC(=O)c1ccc(N2CCN(Cc3ccc4c(c3)NC(=O)C3(CC3)O4)CC2)c(F)n1 [Compound A7] | < 5

Target: T1, PARP1
Assay: cell-based assay (Proliferation Assay (PARP Inhibitors) in DLD-1 wt and DLD-1 BRCA2), Table 1
Protocol: Proliferation Assay (PARP Inhibitors) in DLD-1 wt and DLD-1 BRCA2
DLD-1-wt and DLD-1 mutant cells are cultured in RPMI 1640+10% FBS+1% PS. The cells are harvested into culture media for 2-3 days. The cells are diluted into culture media (density 2˜3×10^6) and 40 μL of cell suspension (50 cells/well for DLD-1 wt and 50 cells/well for DLD-1 BRCA (-/-). The plates are covered and spun at rt at 1000 rpm, for 1 minute and then transferred. The plates are placed into 37° C. 5% CO2 incubator overnight. Test compounds are dissolved at 10 mM DMSO stock solution and then 40 μL of stock solution is transferred to a 384 PP-plate. A 10-point dilution is carried out by transferring 10 uL compound into 30 μL DMSO by using TECAN (EVO200) liquid handler. The plates are spun at rt at 1000 rpm for 1 minute and then shaken on a plate shaker for 2 minutes. Forty nL of diluted compound is transferred into the cell plate by using a liquid handler. After 7 days of incubation, a CTG detection assay is performed. The CTG detection assay is carried out by removing the plates from the incubators and then equilibrated at rt for 15 minutes. The CellTiter Glo reagents are thawed and equilibrated at rt. CellTiter-Glo reagent ([…]) is added into each well, and the plates are placed at rt for 30 minutes followed by reading on EnVision. The inhibition activity is calculated using the formula: % Inhibition=100×(LumHC−LumSample)/(LumHC−LumLC).
In Table 1, ‘A’ indicates an IC50 of <0.1 μM, ‘B’ indicates an IC50 of ≥0.1 μM and <1.0 μM, and ‘C’ indicates an IC50 of ≥[…]. As shown by the results in Table 1, compounds of Formula (I), including pharmaceutically acceptable salts thereof, are effective PARP1 inhibitors.
Target sequence in this assay (P09874 whole entry): as the sequence (P09874 whole entry, species assumed) above

SMILES | IC50 [nM]
CC[C@@H]1Oc2ccc(CN3CCN(c4ccc(C(=O)NC)nc4)CC3)cc2NC1=O (single isomer, unassigned) [Compound 1ab] | < 100
CC[C@@H]1Oc2ccc(CN3CCN(c4ccc(C(=O)NC)nc4C)CC3)cc2NC1=O (single isomer, unassigned) [Compound 2ab] | < 100
CC[C@H]1Oc2ccc(CN3CCN(c4ccc(C(=O)NC)nc4)CC3)cc2NC1=O [Compound 1aa] | < 100
CC[C@H]1Oc2ccc(CN3CCN(c4ccc(C(=O)NC)nc4C)CC3)cc2NC1=O [Compound 2aa] | < 100
CCC1Oc2ccc(CN3CCN(c4ccc(C(=O)NC)nc4)CC3)cc2NC1=O (centres unmarked) [Compound A1] | < 100
CNC(=O)c1ccc(N2CCN(Cc3ccc4c(c3)NC(=O)C3(CC3)O4)CC2)c(F)n1 [Compound A7] | < 100
CNC(=O)c1ccc(N2CCN(Cc3ccc4c(c3F)NC(=O)C3(CC3)O4)CC2)c(F)n1 [Compound A9] | < 100
